Results published in US20180057507A1, “INHIBITORS OF DUAL LEUCINE ZIPPER (DLK) KINASE FOR THE TREATMENT OF DISEASE” (Board of Regents, The University of Texas System, priority 2016, published 2018).

target: T1, human DLK (Homo sapiens, UniProt Q12852); test: DLK Kd Determinations (KINOMEscan KdELECT, DiscoveRx); set-up: full length of human DLK (amino acids 1-859); host or cells: transiently transfected HEK293 cells; unpurified extract; conditions: fusion protein of full length human DLK (amino acids 1-859) and NFkB DNA binding domain; qPCR readout; duplicate
T1 sequence (Q12852 1-859): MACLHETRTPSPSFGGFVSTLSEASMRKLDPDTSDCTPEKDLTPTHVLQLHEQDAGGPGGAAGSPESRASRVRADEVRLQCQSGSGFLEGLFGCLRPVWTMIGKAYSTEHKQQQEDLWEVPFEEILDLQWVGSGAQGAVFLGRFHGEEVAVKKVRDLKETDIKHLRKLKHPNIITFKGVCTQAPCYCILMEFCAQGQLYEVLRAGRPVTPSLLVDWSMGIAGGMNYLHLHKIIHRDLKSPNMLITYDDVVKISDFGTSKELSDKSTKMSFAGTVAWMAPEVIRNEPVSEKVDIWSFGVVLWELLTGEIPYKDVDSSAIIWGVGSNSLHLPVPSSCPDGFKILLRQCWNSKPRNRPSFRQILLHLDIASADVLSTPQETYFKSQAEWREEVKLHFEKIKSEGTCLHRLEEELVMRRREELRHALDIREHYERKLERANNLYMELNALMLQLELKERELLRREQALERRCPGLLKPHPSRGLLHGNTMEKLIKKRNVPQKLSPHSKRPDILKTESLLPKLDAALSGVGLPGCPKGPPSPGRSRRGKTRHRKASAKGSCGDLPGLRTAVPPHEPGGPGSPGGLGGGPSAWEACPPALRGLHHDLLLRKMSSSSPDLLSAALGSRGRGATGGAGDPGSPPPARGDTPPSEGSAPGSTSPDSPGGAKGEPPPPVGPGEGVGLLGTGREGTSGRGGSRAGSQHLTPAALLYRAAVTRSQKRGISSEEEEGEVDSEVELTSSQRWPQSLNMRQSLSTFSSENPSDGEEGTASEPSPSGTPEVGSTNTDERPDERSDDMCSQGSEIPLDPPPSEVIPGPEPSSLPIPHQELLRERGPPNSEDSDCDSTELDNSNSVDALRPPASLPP
Method: The DLK dissociation constants (Kd) have been determined in the KINOMEscan KdELECT Service at DiscoveRx.
A fusion protein of full length of human DLK (amino acids 1-859) and the DNA binding domain of NFkB was expressed in transiently transfected HEK293 cells. From these HEK 293 cells, extracts were prepared in M-PER extraction buffer (Pierce) in the presence of Protease Inhibitor Cocktail Complete (Roche) and Phosphatase Inhibitor Cocktail Set II (Merck) per manufacturers' instructions. The DLK fusion protein was labeled with a chimeric double-stranded DNA tag containing the NFkB binding site (5′-GGGAATTCCC-3′) fused to an amplicon for qPCR readout, which was added directly to the expression extract (the final concentration of DNA-tag in the binding reaction is 0.1 nM).
Streptavidin-coated magnetic beads (Dynal M280) were treated with a biotinylated small molecule ligand for 30 minutes at room temperature to generate affinity resins the binding assays. The liganded beads were blocked with excess biotin and washed with blocking buffer (SeaBlock (Pierce), 1% BSA, 0.05% Tween 20, 1 mM DTT) to remove unbound ligand and to reduce nonspecific binding.
Extracts were used directly in binding assays without any enzyme purification steps at a ≧10,000-fold overall stock dilution (final DNA-tagged enzyme concentration <0.1 nM). Extracts were loaded with DNA-tag and diluted into the binding reaction in a two step process. First extracts were diluted 1:100 in 1× binding buffer (PBS/0.05% Tween 20/10 mM DTT/0.1% BSA/2 μg/ml sonicated salmon sperm DNA) containing 10 nM DNA-tag. This dilution was allowed to equilibrate at room temperature for 15 minutes and then subsequently diluted 1:100 in 1× binding buffer. Test compounds were prepared as 111× stocks in 100% DMSO. Kds were determined using an 11-point 3-fold compound dilution series with three DMSO control points. All compounds for Kd measurements are distributed by acoustic transfer (non-contact dispensing) in 100% DMSO. The compounds were then diluted directly into the assays such that the final concentration of DMSO was 0.9%. All reactions performed in polypropylene 384-well plates. Each was a final volume of 0.02 mL. Assays were incubated with shaking for 1 hour at room temperature. Then the beads were pelleted and washed with wash buffer (1×PBS, 0.05% Tween 20) to remove displaced kinase and test compound. The washed based were re-suspended in elution buffer (1×PBS, 0.05% Tween 20, 0.5 μM non-biotinylated affinity ligand) and incubated at room temperature with shaking for 30 minutes. The kinase concentration in the eluates was measured by qPCR. qPCR reactions were assembled by adding 2.5 μL of kinase eluate to 7.5 μL of qPCR master mix containing 0.15 μM amplicon primers and 0.15 μM amplicon probe. The qPCR protocol consisted of a 10 minute hot start at 95° C., followed by 35 cycles of 95° C. for 15 seconds, 60° C. for 1 minute.
Test compounds were prepared as 111× stocks in 100% DMSO. Kds were determined using an 11-point 3-fold compound dilution series with three DMSO control points. All compounds for Kd measurements are distributed by acoustic transfer (non-contact dispensing) in 100% DMSO. The compounds were then diluted directly into the assays such that the final concentration of DMSO was 0.9%. The Kds were determined using a compound top concentration of 30,000 nM. Kd measurements were performed in duplicate.
Binding constants (Kds) were calculated with a standard dose-response curve using the Hill equation: […]
The Hill Slope was set to −1. Curves were fitted using a non-linear least square fit with the Levenberg-Marquardt algorithm (Levenberg, K., A method for the solution of certain non-linear problems in least squares, Q. Appl. Math. 2, 164-168 (1944)). See also Fabian, M. A. et al. A small molecule-kinase interaction map for clinical kinase inhibitors. Nat. Biotechnol. […]

Kd | Structure (SMILES)
240 nM | CC(C)c1nc(-c2cnc(N)c(C(F)(F)F)c2)cn1[C@H]1C[C@@H](F)C1 [Example 24, 5-(1-((1s,3s)-3-fluorocyclobutyl)-2-isopropyl-1H-imidazol-4-yl)-3-(trifluoromethyl)pyridin-2-amine]
110 nM | Nc1ncc(-c2cn([C@H]3[C@@H]4CNC[C@@H]43)c(CC3CC3)n2)cc1OC(F)F [Example 86, 5-(1-((1R,5S,6s)-3-azabicyclo[3.1.0]hexan-6-yl)-2-(cyclopropylmethyl)-1H-imidazol-4-yl)-3-(difluoromethoxy)pyridin-2-amine]
240 nM | Nc1ncc(-c2cn(C3CC3)c(C3CC3)n2)cc1C(F)(F)F [Example 9, 5-(1,2-dicyclopropyl-1H-imidazol-4-yl)-3-(trifluoromethyl)pyridin-2-amine]
270 nM | CC(C)c1nc(-c2cnc(N)c(C(F)(F)F)c2)cn1C1CN(C2COC2)C1 [Example 27, 5-(2-isopropyl-1-(1-(oxetan-3-yl)azetidin-3-yl)-1H-imidazol-4-yl)-3-(trifluoromethyl)pyridin-2-amine]
95 nM | COCCN1C[C@@H]2[C@H](C1)[C@H]2n1cc(-c2cnc(N)c(OC(F)F)c2)nc1C(C)C [Example 113, 3-(difluoromethoxy)-5-(2-isopropyl-1-((1R,5S,6s)-3-(2-methoxyethyl)-3-azabicyclo[3.1.0]hexan-6-yl)-1H-imidazol-4-yl)pyridin-2-amine]
66 nM | CC(C)c1nc(-c2cnc(N)c(OC(F)(F)F)c2)cn1[C@H]1[C@@H]2CN(CC(F)F)C[C@@H]21 [Example 109, 5-(1-((1R,5S,6s)-3-(2,2-difluoroethyl)-3-azabicyclo[3.1.0]hexan-6-yl)-2-isopropyl-1H-imidazol-4-yl)-3-(trifluoromethoxy)pyridin-2-amine]
200 nM | CC(=O)N1C[C@@H]2[C@H](C1)[C@H]2n1cc(-c2cnc(N)c(OC(F)F)c2)nc1CC1CC1 [Example 115, 1-((1R,5S,6s)-6-(4-(6-amino-5-(difluoromethoxy)pyridin-3-yl)-2-(cyclopropylmethyl)-1H-imidazol-1-yl)-3-azabicyclo[3.1.0]hexan-3-yl)ethan-1-one]
50 nM | Nc1ncc(-c2cn([C@H]3[C@@H]4CNC[C@@H]43)c(CC3CC3)n2)cc1C(F)(F)F [Example 59, 5-(1-((1R,5S,6s)-3-azabicyclo[3.1.0]hexan-6-yl)-2-(cyclopropylmethyl)-1H-imidazol-4-yl)-3-(trifluoromethyl)pyridin-2-amine]
340 nM | Nc1ncc(-c2cn([C@H]3[C@@H]4CN(CC(F)(F)F)C[C@@H]43)c(CC3CC3)n2)cc1OC(F)(F)F [Example 99, 5-(2-(cyclopropylmethyl)-1-((1R,5S,6s)-3-(2,2,2-trifluoroethyl)-3-azabicyclo[3.1.0]hexan-6-yl)-1H-imidazol-4-yl)-3-(trifluoromethoxy)pyridin-2-amine]
120 nM | Nc1ncc(-c2cn([C@H]3[C@@H]4CN(C5COC5)C[C@@H]43)c(C3CCCC3)n2)cc1OC(F)F [Example 64, 5-(2-cyclopentyl-1-((1R,5S,6s)-3-(oxetan-3-yl)-3-azabicyclo[3.1.0]hexan-6-yl)-1H-imidazol-4-yl)-3-(difluoromethoxy)pyridin-2-amine]
100 nM | Nc1ncc(-c2cn([C@H]3[C@@H]4CN(C5COC5)C[C@@H]43)c(CC(F)(F)F)n2)cc1C(F)(F)F [Example 52, 5-(1-((1R,5S,6s)-3-(oxetan-3-yl)-3-azabicyclo[3.1.0]hexan-6-yl)-2-(2,2,2-trifluoroethyl)-1H-imidazol-4-yl)-3-(trifluoromethyl)pyridin-2-amine]
220 nM | CC(C)c1nc(-c2cnc(N)c(C(F)(F)F)c2)cn1C1CCCC1 [Example 28, 5-(1-cyclopentyl-2-isopropyl-1H-imidazol-4-yl)-3-(trifluoromethyl)pyridin-2-amine]
240 nM | COCCN1C[C@@H]2[C@H](C1)[C@H]2n1cc(-c2cnc(N)c(OC(F)F)c2)nc1C(C)C [Example 55, 3-(difluoromethoxy)-5-(2-isopropyl-1-((1R,5S,6s)-3-(2-methoxyethyl)-3-azabicyclo[3.1.0]hexan-6-yl)-1H-imidazol-4-yl)pyridin-2-amine]
